Data reported in patent publication EP0252983B1, “SALTS OF N-(VINYLOXIETHYL)DITHIOCARBAMIC ACID, METHOD OF OBTAINING THEREOF AND […] ON THEM” (priority 1985, dated 1987).
Where two headings read alike, the source gives them in different places.

Legend:
[1] = Storage stability (descriptive); format: physicochemical
Acremonium charticola = experiment: Mycelial growth inhibition on agar (contact activity); format: cell-based; conditions: Acremonium charticola, 120 h; Präparatkonzentration 0,0015 %; Würzeagar; read-out: Myzelhemmung in %
Chaetomium globosum = experiment: as above; format: cell-based
Protocol: (§1) Die Prüfungen werden nach dem Verfahren zur Ermittlung der Kontaktaktivität durchgeführt. Man verwendet das in Wasser gelöste Kalium-N-(vinyloxyäthyl)dithiocarbamat, führt es in ein Nährmedium ein und vergießt auf Petri-Schalen. Nach 24 Stunden wird mit Pilzmyzelium nach einem Stichverfahren geimpft. Dann temperiert man die Schalen innerhalb von 5 Tagen bei einer zwischen 24 und 26 °C liegenden Temperatur und mißt den Durchmesser von Pilzkolonien, ermittelt den Prozentsatz der Hemmung des Myzelwachstums (S) ausgehend von Angaben am 5. Tag nach der Abbott-Formel [drawing 13] worin dc für den Durchmesser der Pilzkolonien, de für den Durchmesser von Pilzkolonien in der Schale stehen, wo ein die zu prüfenden Stoffe enthaltendes Medium vorhanden ist. Dieses Verfahren zur Ermittlung der mikrobiologischen Aktivität ist in anderen Beispielen verwendet.

Paecilomyces varioti = experiment: as above; format: cell-based; conditions: Paecilomyces, 120 h; Wirkstoffkonzentration 0,003 %; Tabelle 3; read-out: Mycelhemmung, in %
Protocol: as §1

Penicillium funiculosum = experiment: as above; format: cell-based
Protocol: as §1

Stereum hirsutum = experiment: as above; format: cell-based; conditions: Stereum hirsutum, 120 h; Wirkstoffkonzentration 0,003 %; Tabelle 3; read-out: Mycelhemmung, in %
Protocol: as §1

Aspergillus niger = experiment: as above; format: cell-based; conditions: Aspergillus niger, 120 h; for inhibition of growth at 0.003 %: Wirkstoffkonzentration 0,003 %
Larven von Fichtenböcken = experiment: Insecticidal activity, topical application to larvae; format: in vivo, Fichtenböcke; conditions: 10%ige Lösung
From the text: Die hohe insektizide Aktivität von Kalium-N-(vinyloxyathyl)dithiocarbamat und Zink-bis-(N-vinyloxyathyl- dithiocarbamat) wurde in Versuchen an Larven von Fichtenböcken nachgewiesen. Geprüft wurden die 10%igen wäßrigen (oder alkoholischen) Lösungen, welche auf die Kopfbrust von Larven aufgebracht wurden. In Versuchen standen je 20 Larven zur Verfügung. Die Versuche wurden dreimal wiederholt. Die Mortalität wurde nach 1, 24 und 48 Stunden ermittelt. Die insektizide Aktivität der erfindungsgemäßen Stoffe ist bedeutend höher als die von Chlorophos.
Die Prüfungen auf insektizide Aktivität werden an Larven von Fichtenböcken durchgeführt. Geprüft werden eine 10%ige wäßrige Lösung von Kalium-N-(vinyloxyäthyl)dithiocarbamat und eine 10%ige alkoholische Lösung von Zink-bis-N-(vinyloxyathyldithiocarbamat). In jedem Versuch stehen je 20 Larven zur Verfügung. Die Mortalität wird nach 1, 24 und 48 Stunden ermittelt. Die zu prüfenden Lösungen werden auf die Kopfbrust von Larven aufgebracht.

Venturia inaegualis = experiment: Mycelial growth inhibition on agar (contact activity); format: cell-based; conditions: 120 h, Kartoffel-Glukose-Nährmedium, read-out: Myzelhemmung in %
Outline: (§2)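 Compound dissolved in water and mixed into potato-glucose agar poured into dishes. Mycelium stab-inoculated after 24 h, then incubated 5 days at 24–26 °C. Colony diameters measured on day 5, and % mycelial growth inhibition calculated by Abbott's formula.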

Verticillium dahliae = experiment: as above; format: cell-based; conditions: 120 h, Kartoffel-Glukose-Nährmedium, read-out: Myzelhemmung in %
Outline: as §2

Fusarium sambucinum = experiment: as above; format: cell-based; conditions: Fusarium sambucinum, 120 h, Kartoffel-Glukose-Nährmedium, read-out: Myzelhemmung in %
Botrytis cinerea = experiment: as above; format: cell-based; conditions: 120 h, Kartoffel-Glukose-Nährmedium, read-out: Myzelhemmung in %
Outline: as §2

Escherichia = experiment: Bactericidal activity on agar (concentration of complete growth inhibition); format: cell-based; conditions: % bezogen auf den Wirkstoff; am 5. Tag; listed as Kaliumsalz
Pseudomonas = experiment: as above; format: cell-based; conditions: % bezogen auf den Wirkstoff; am 5. Tag; listed as Kaliumsalz
Bacillus = experiment: as above; format: cell-based; conditions: % bezogen auf den Wirkstoff; am 5. Tag; listed as Kaliumsalz
Micrococcus = experiment: as above; format: cell-based; conditions: % bezogen auf den Wirkstoff; am 5. Tag; listed as Kaliumsalz
Acremonium cowum = experiment: Mycelial growth inhibition on agar (contact activity); format: cell-based; conditions: 120 h, Würzeagar, read-out: Myzelhemmung in %
[2] = system: Wurzelschimmelkomplex von Gewächshausgurken; experiment: Greenhouse trial against cucumber root mould complex (200 m^2); format: in vivo
From the text: Kalium-N-(vinyloxyäthyl)dithiocarbamat wurde gegen Wurzelschimmelkomplex von Gewächshausgurken auf einer Fläche von 200 m^2 und 1 ha geprüft. Die auf einer 200 m^2 großen Fläche durchgeführten Prüfungen haben gezeigt, daß Kalium-N-(vinyloxyäthyl)dithiocarbamat die 100%ige Unterdrückung von Erregern der Pythium-Fäule und der begleitenden Gurkenwurzelschimmeln bewirkt. Der Ernteertrag steigt dabei durch Bodenbehandlung um 4,2 kg/m^2 gegenüber Kontrolle (ohne Wirkstoffgabe ist der Ertrag 10 kg/m^2 und um 1,6 kg/m^2 gegenüber Fundazol an.

[3] = Acute toxicity (LD50) in mice; format: in vivo, weißen Mäusen; conditions: mouse, in vivo, po; perorale Applikation an weißen Mäusen; read-out: LD50

C=COCCNC(=S)S [Kalium-N-(vinyloxyäthyl)dithiocarbamat]
Lagerbeständigkeit [1]: lagerbeständig
inhibition of growth at 0.0015 % (Acremonium charticola): 100%
inhibition of growth at 0.003 % (Chaetomium globosum; Chaetomium globosum, 120 h, Wirkstoffkonzentration 0,003 %, Tabelle 3, read-out: Mycelhemmung, in %): 100%
Aktivität übersteigt Polykarbazin (Vergleichsmuster) (Chaetomium globosum; gegen das Myzelium der Pilze Chaetomium globosum): 10%
inhibition of growth at 0.003 % (Paecilomyces varioti): 100%
inhibition of growth at 0.003 % (Penicillium funiculosum; Talaromyces funiculosus, 120 h, Wirkstoffkonzentration 0,003 %, Tabelle 3, read-out: Mycelhemmung, in %): 100%
Aktivität übersteigt Salizylanilid (Vergleichsmuster) (Penicillium funiculosum; gegen Myzelium von Penicillium funiculosum): 10%
inhibition of growth at 0.003 % (Stereum hirsutum): 100%
inhibition of growth at 0.01 % (Aspergillus niger; Wirkstoffkonzentration 0,01 %, Kartoffel-Glukose-Nährmedium, read-out: Myzelhemmung in %): 100%
inhibition of growth at 0.003 % (Aspergillus niger; Kartoffel-Glukose-Nährmedium, read-out: Myzelhemmung in %): 100%
inhibition of growth at 0.003 % (Aspergillus niger; Tabelle 3, read-out: Mycelhemmung, in %): 100%
Mortalität von Larven der Fichtenböcke (Larven von Fichtenböcken; Wirkungsdauer 1 Stunde): 20%
Mortalität von Larven der Fichtenböcke (Larven von Fichtenböcken; Wirkungsdauer 24 Stunden): 100%
Mortalität von Larven der Fichtenböcke (Larven von Fichtenböcken; Wirkungsdauer 48 Stunden): 100%
inhibition of growth at 0.01 % (Venturia inaegualis; Wirkstoffkonzentration 0,01 %): 100%
inhibition of growth at 0.003 % (Venturia inaegualis; Wirkstoffkonzentration 0,003 %): 100%
inhibition of growth at 0.01 % (Verticillium dahliae; Wirkstoffkonzentration 0,01 %): 100%
inhibition of growth at 0.003 % (Verticillium dahliae; Wirkstoffkonzentration 0,003 %): 100%
inhibition of growth at 0.01 % (Fusarium sambucinum; Wirkstoffkonzentration 0,01 %): 100%
inhibition of growth at 0.003 % (Fusarium sambucinum; Wirkstoffkonzentration 0,003 %): 100%
inhibition of growth at 0.01 % (Botrytis cinerea; Wirkstoffkonzentration 0,01 %): 100%
inhibition of growth at 0.003 % (Botrytis cinerea; Wirkstoffkonzentration 0,003 %): 100%
Konzentrationen, welche das Bakterienwachstum völlig (100 %) hemmen (Escherichia): 0,05%
Konzentrationen, welche das Bakterienwachstum völlig (100 %) hemmen (Pseudomonas): 0,05%
Konzentrationen, welche das Bakterienwachstum völlig (100 %) hemmen (Bacillus): 0,05%
Konzentrationen, welche das Bakterienwachstum völlig (100 %) hemmen (Micrococcus): 0,05%
inhibition of growth at 0.003 % (Acremonium cowum; Präparatkonzentration 0,003 %): 100%
inhibition of growth at 0.006 % (Acremonium cowum; Präparatkonzentration 0,006 %): 100%
Unterdrückung von Erregern der Pythium-Fäule und der begleitenden Gurkenwurzelschimmeln ([2]; 200 m^2 große Fläche): 100%
Ernteertrag steigt gegenüber Fundazol ([2]; Bodenbehandlung, 200 m^2): 1,6 kg/m^2
Ernteertrag steigt gegenüber Kontrolle ([2]; Bodenbehandlung, 200 m^2, Kontrolle 10 kg/m^2): 4,2 kg/m^2
LD50 [3]: 1400 ± 350 mg/kg
